{"source": "patent US9789121B2", "about": "“Small molecules that replace or agonize p53 function” (BUCK INSTITUTE, priority 2004, dated 2017)", "key": {"Saos-2": {"tested_on": "Saos-2", "test": "G6 sensitivity of osteosarcoma cell line Saos-2 (p53 null)", "format": "cell-based", "details": "Saos-2, osteosarcoma, listed as Rp53-1"}, "MDA-435": {"tested_on": "MDA-435", "test": "G6 sensitivity of breast cancer cells MDA-435 (p53 Mt)", "format": "cell-based, human", "details": "MDA-435, breast, listed as Rp53-1", "method": "To assess the ability of the small molecule compound Rp53-1 to mimic the transcription-promoting functions of p53 leading to Bax expression and induction of cell death, p53-mutated MDA-MB-435 and p53-wild-type MCF-7 human breast cancer cells were treated with Rp53-1. […] Lack of toxicity in cells generating normal p53 activity (all other human cells) would reduce possible side effects. Inherent in the initial drug design was a strategy to develop a therapy that targets mutant p53 containing cells and that would leave healthy cells expressing normal p53 unaffected (FIG. 3)."}, "[1]": {"tested_on": "p53 Reporter in p53 Mt and Null Cells", "test": "p53 reporter in p53 Mt and Null cells", "format": "cell-based"}, "[2]": {"tested_on": "human osteosarcoma xenografted nude mice", "test": "G6 treatment of human osteosarcoma xenografted nude mice", "format": "in vivo", "from_the_text": "Initial trials of G6 in human osteosarcoma xenografted nude mice have shown promise (FIG. 10). Mice bearing p53 abnormal tumors have responded well to G6. […] Further mouse studies are currently underway."}, "[3]": {"tested_on": "p53 defective tumor cell line", "test": "G6 treatment of p53 defective tumor cell lines", "format": "cell-based", "details": "every p53 defective tumor cell line treated", "from_the_text": "(§1) Inherent in the initial drug design was a strategy to develop a therapy that targets mutant p53 containing cells and that would leave healthy cells expressing normal p53 unaffected (FIG. 3)."}, "PC3": {"tested_on": "PC3", "test": "G6 sensitivity of prostate cell line PC3 (p53 null)", "format": "cell-based", "details": "listed as Rp53-1"}, "HT29": {"tested_on": "HT29", "test": "G6 sensitivity of colon cell line HT29 (p53 Mt)", "format": "cell-based", "details": "listed as Rp53-1"}, "breast cancer cells": {"tested_on": "breast cancer cells", "test": "Single pulse treatment of breast cancer cells with G6", "format": "cell-based", "details": "single pulse of G6 in the nanomolar range", "from_the_text": "Thus G6 appears to be a potent treatment."}, "SW480": {"tested_on": "SW480", "test": "G6 sensitivity of colon cell line SW480 (p53 Mt)", "format": "cell-based", "details": "listed as Rp53-1"}, "Lovo": {"tested_on": "Lovo", "test": "G6 sensitivity of colon cell line Lovo (p53 WT)", "format": "cell-based", "details": "listed as Rp53-1"}, "DU145": {"tested_on": "DU145", "test": "G6 sensitivity of prostate cell line DU145 (p53 Mt)", "format": "cell-based", "details": "listed as Rp53-1"}, "ColoHSR": {"tested_on": "ColoHSR", "test": "G6 sensitivity of colon cell line ColoHSR (p53 Mt)", "format": "cell-based", "details": "listed as Rp53-1"}, "[4]": {"tested_on": "p53/Bax reporter in HEK293T cells", "test": "p53/Bax luciferase reporter system in HEK293T cells", "format": "cell-based", "from_the_text": "To identify p53 mimics, we developed a live mammalian cell system that reports the promotion of the expression of the pro-apoptotic Bax protein. The bax promoter consists of a 372 nucleotide 5′ UTR, a TATAA sequence, and several consensus sequences that bind p53, resulting in up-regulation of Bax expression (see, e.g., FIG. 1). By expressing these sites upstream of the gene encoding luciferase in HEK293T cells, we have established a novel set of reporter cell lines. These cells provide a system which allows identification of both direct activators of Bax expression and replacements of an apoptotic function of p53. In initial studies, cotransfection of a p53 expression plasmid with a reporter bearing oligomerized consensus binding sites yielded strongly luminescent cells, whereas cotransfection with an irrelevant plasmid gave no luminescence. […] By employing the Multi-Probe H liquid handling robotic system and the ultra-sensitive Top-Count luminometer, high-speed screening of thousands of compounds has been enabled at the Buck Institute. We obtained and screened a 2000 compound small molecule library made available by the National Cancer Institute in our p53 reporter system in HEK293T cells."}, "[5]": {"tested_on": "wild type cells from corresponding normal tissue", "test": "G6 treatment of wild type cells from corresponding normal tissue", "format": "cell-based", "from_the_text": "as §1"}, "LNcap": {"tested_on": "LNcap", "test": "G6 sensitivity of prostate cell line LNcap (p53 WT)", "format": "cell-based", "details": "listed as Rp53-1"}}, "note": "“Also recorded” adds a separate entry of the source.", "data": [{"smiles": "Cc1cc(OCc2nc(N)nc(N)c2-c2ccc(Cl)c(Cl)c2)ccc1[N+](=O)[O-]", "note": "[G6]", "values": [{"measurement": "G6 Sensitivity", "setting": "Saos-2", "value": "sensitive"}, {"measurement": "G6 Sensitivity", "setting": "MDA-435", "value": "sensitive"}, {"measurement": "induction of p53 Reporter", "setting": "[1]", "value": "induces p53 Reporter"}, {"measurement": "adverse side effects", "setting": "[2]; human osteosarcoma xenografted nude mice treated with G6", "value": "none of the mice have shown adverse side effects"}, {"measurement": "tumor regression", "setting": "[2]; nude mice implanted with human osteosarcoma tissue, p53 abnormal tumors", "value": "complete regression of tumor"}, {"measurement": "susceptibility to G6", "setting": "[3]", "value": "showed susceptibility"}, {"measurement": "G6 Sensitivity", "setting": "PC3", "value": "sensitive"}, {"measurement": "G6 Sensitivity", "setting": "HT29", "value": "sensitive"}, {"measurement": "activation of the cell death program / drug efficacy", "setting": "breast cancer cells", "value": "complete drug efficacy; also recorded: sufficient to activate the cell death program"}, {"measurement": "G6 Sensitivity", "setting": "SW480", "value": "sensitive"}, {"measurement": "G6 Sensitivity", "setting": "Lovo", "value": "resistant"}, {"measurement": "G6 Sensitivity", "setting": "DU145", "value": "sensitive"}, {"measurement": "G6 Sensitivity", "setting": "ColoHSR", "value": "sensitive"}, {"measurement": "expression of luciferase levels relative to transfected wild-type p53", "setting": "[4]; high concentrations (10 μM)", "value": "greater than transfected wild-type p53"}, {"measurement": "luciferase expression and activity (p53 reporter)", "setting": "[4]; listed as Rp53-1", "value": "activates the p53/Bax reporter; also recorded: significant levels of luciferase activity"}, {"measurement": "effect of G6 on wild type cells", "setting": "[5]", "value": "unaffected"}, {"measurement": "G6 Sensitivity", "setting": "LNcap", "value": "resistant"}]}]}
